From patent US20100069450A1, “SALT OF 3-BENZYL-2-METHYL-2,3,3A,4,5,6,7, 7A- OCTAHYDROBENZO[D]ISOXAZOL-4-ONE” (ABIOGEN PHARMA S.P.A, priority 2006, published 2010)
Counter-ions that a name gives are not always drawn. Like-named read-outs stand apart in the source and are kept apart here.

Assays:
female CD-1 mice = test: Acute oral toxicity; format: in vivo
Protocol: Acute oral toxicity of salts hydrochloride and fumarate of BTG-1640 was evaluated.
The two salts were dispersed in an aqueous suspension, thus obtaining two formulations, each one orally administered through oesophageous gavage at dose of 2000 mg/kg bw (expressed as free base of BTG 1640) to one of two groups comprising three female CD-1 mice per group.
The observation lasted 14 days.

[1] = Stability test of BTG 1640 salts: purity under preservation conditions; format: physicochemical
Protocol: Samples of 100 mg each of BTG 1640 hydrochloride were subjected to the following preservation conditions:
The purities were then analyzed periodically, initially every three months, in order to underline possible variations.
Samples of 100 mg each of BTG 1640 fumarate prepared according to example 1C were subjected to the following preservation conditions:
Quarterly and in an overall period of nine months its purity was then analyzed in order to underline possible variations. The results in the following Table 3 were obtained:
As comparison other salts of BTG 1640 were prepared, and exactly: • BTG 1640 methanesulphonate • BTG 1640 maleate • BTG 1640 succinate following the procedure indicated in example 1 and substituting methanesolphonic, maleic and succinic acids for fumaric acid.
The stabilities were then evaluated by subjecting samples of 100 mg of each salt to the following analogous preservation conditions:
Quarterly and in an overall period of nine months their purity was then analyzed in order to underline possible variations.
The obtained results, together with those obtained in Example 2 for hydrochloride, in Example 3 for fumarate in order to make easier the comparison, were in Table 5 and represented in FIGS. 5-8.

[2] = Absorption kinetic: plasma concentration of BTG 1640 after oral gavage; format: in vivo, rats Sprague Dawley; conditions: rat, in vivo, po, 10 mg/kg
Protocol: Absorption extent and rate of molecule BTG 1640 in its forms of fumarate and hydrochloride salts were evaluated.
With this intent, the two salts were dispersed in an aqueous suspension of arabic gum at 5% thus obtaining two formulations, each one orally administered through oesophageous gavage at dose of 10 mg/kg (expressed as free base of BTG 1640) to five rats Sprague Dawley.
Plasma concentration of molecule BTG 1640 was determined at different time points.

[3] = Stability test of BTG 1640 salts: evaluation of total impurities; format: physicochemical
Protocol: Contemporaneously, the impurity analysis in the conditions a)-d) of T/% RH were carried out.
As a confirmation of such evidence, a test for the evaluation of the impurity percentage of the sample subjected to the same conditions a)-d) of T/% RH was parallely carried out. The experimental values in Table 4 were obtained.

[4] = female CD-1 mice, oral gavage 2000 mg/kg bw
[5] = T = 25° C., humidity 60% RH, time 0
[6] = T = 25° C., humidity 60% RH, time 3 (months)
[7] = T = 25° C., humidity 60% RH, time 6 (months)
[8] = T = 25° C., humidity 60% RH, time 9 (months)
[9] = T = 30° C., humidity 65% RH, time 0
[10] = T = 30° C., humidity 65% RH, time 3 (months)
[11] = T = 30° C., humidity 65% RH, time 6 (months)
[12] = T = 30° C., humidity 65% RH, time 9 (months)
[13] = T = 40° C., humidity 75% RH, time 0
[14] = T = 40° C., humidity 75% RH, time 3 (months)
[15] = T = 40° C., humidity 75% RH, time 6 (months)

Structure (SMILES): CN1OC2CCCC(=O)C2C1Cc1ccccc1 [BTG 1640 fumarate, fumarate salt of rel-(3R,3aS,7aS)-3-benzyl-2-methyl-2,3,3a,4,5,6,7,7a-octahydrobenzo[d]isoxazol-4-one]
- Clinical signs (female CD-1 mice; [4]): quickly reversible neurological signs
- Histopathological examination of kidneys (female CD-1 mice; [4]): only a mild dilatation of convoluted tubules
- Toxicity compared with hydrochloride (female CD-1 mice; female mice, 2000 mg/kg bw): strongly less toxic
- Stability compared with BTG 1640 hydrochloride [1]: higher stability
- Purity % ([1]; T = 5° C., time 0): 99.5%
- Purity % ([1]; T = 5° C., time 3 (months)): 100.0%
- Purity % ([1]; T = 5° C., time 6 (months)): 100.0%
- Purity % ([1]; T = 5° C., time 9 (months)): 99.9%
- Purity % [1, 5]: 99.5%
- Purity % [1, 6]: 100.0%
- Purity % [1, 7]: 100.0%
- Purity % [1, 8]: 99.9%
- Purity % [1, 9]: 99.5%
- Purity % [1, 10]: 100.0%
- Purity % [1, 11]: 100.0%
- Purity % [1, 12]: 99.9%
- Purity % [1, 13]: 99.5%
- Purity % [1, 14]: 100.0%
- Purity % [1, 15]: 100.0%
- concentration at 2 min ([2]; Sprague Dawley): 1070 ng/mL
- concentration at 5 min ([2]; Sprague Dawley): 2350 ng/mL
- concentration at 30 min ([2]; Sprague Dawley): 838 ng/mL
- concentration at 90 min ([2]; Sprague Dawley): 0 ng/mL
- concentration at 300 min ([2]; Sprague Dawley): 0 ng/mL
- Plasma concentration of free BTG 1640 with respect to hydrochloride [2]: not significantly higher
- availability of the active principle in the circulation [2]: more favourable
- % impurities ([3]; T = 5° C., time 0): 0.49%
- % impurities ([3]; T = 5° C., time 3 (months)): 0.10%
- % impurities ([3]; T = 5° C., time 6 (months)): 0.10%
- % impurities ([3]; T = 5° C., time 9 (months)): 0.10%
- % impurities [3, 5]: 0.49%
- % impurities [3, 6]: 0.10%
- % impurities [3, 7]: 0.10%
- % impurities [3, 8]: 0.10%
- % impurities [3, 9]: 0.49%
- % impurities [3, 10]: 0.10%
- % impurities [3, 11]: 0.10%
- % impurities [3, 12]: 0.10%
- % impurities [3, 13]: 0.49%
- % impurities [3, 14]: 0.10%
- % impurities [3, 15]: 0.10%
- Impurities (in words) ([3]; condition d): 40° C./75% RH): invariable impurity profile

Structure (SMILES): CN1OC2CCCC(=O)C2C1Cc1ccccc1.O=C(O)/C=C\C(=O)O (stereo not shown) [BTG 1640 maleate]
- Purity % ([1]; T = 5° C., time 0): 99.8%
- Purity % ([1]; T = 5° C., time 3 (months)): 100.0%
- Purity % ([1]; T = 5° C., time 6 (months)): 100.0%
- Purity % ([1]; T = 5° C., time 9 (months)): 99.8%
- Purity % [1, 5]: 99.8%
- Purity % [1, 6]: 99.8%
- Purity % [1, 7]: 100.0%
- Purity % [1, 8]: 99.7%
- Purity % [1, 9]: 99.8%
- Purity % [1, 10]: 99.5%
- Purity % [1, 11]: 98.9%
- Purity % [1, 12]: 95.9%
- Purity % [1, 13]: 99.8%
- Purity % [1, 14]: 24.4%
- Degradation (in words) ([1]; condition c) 30° C./65% RH, at sixth month): considerable degradation
- Stability (in words) ([1]; condition d): 40° C. and 75% RH): degrades in unacceptable way
- Stability profile (in words) ([1]; conditions a) and b)): acceptable profile
- Stability compared with BTG 1640 hydrochloride ([1]; conditions a)-d)): even worse
- % impurities ([3]; T = 5° C., time 0): 0.23%
- % impurities ([3]; T = 5° C., time 3 (months)): 0.10%
- % impurities ([3]; T = 5° C., time 6 (months)): 0.10%
- % impurities ([3]; T = 5° C., time 9 (months)): 0.19%
- % impurities [3, 5]: 0.23%
- % impurities [3, 6]: 0.22%
- % impurities [3, 7]: 0.10%
- % impurities [3, 8]: 0.29%
- % impurities [3, 9]: 0.23%
- % impurities [3, 10]: 0.49%
- % impurities [3, 11]: 1.10%
- % impurities [3, 12]: 4.20%
- % impurities [3, 13]: 0.23%
- % impurities [3, 14]: 75.60%

Structure (SMILES): CN1OC2CCCC(=O)C2C1Cc1ccccc1.CS(=O)(=O)O (stereo not shown) [BTG 1640 methanesulphonate]
- Purity % ([1]; T = 5° C., time 0): 99.6%
- Purity % ([1]; T = 5° C., time 3 (months)): 99.5%
- Purity % ([1]; T = 5° C., time 6 (months)): 99.3%
- Purity % ([1]; T = 5° C., time 9 (months)): 99.1%
- Purity % [1, 5]: 99.6%
- Purity % [1, 6]: 98.2%
- Purity % [1, 7]: 97.1%
- Purity % [1, 8]: 95.0%
- Purity % [1, 9]: 99.6%
- Purity % [1, 10]: 96.0%
- Purity % [1, 11]: 86.8%
- Purity % [1, 12]: 74.2%
- Purity % [1, 13]: 99.6%
- Purity % [1, 14]: 81.5%
- Purity % [1, 15]: 5.7%
- Stability compared with BTG 1640 hydrochloride ([1]; conditions a)-d)): even worse
- Degradation (in words) ([1]; conditions b)-d)): begins to degrade already after three months
- % impurities ([3]; T = 5° C., time 0): 0.42%
- % impurities ([3]; T = 5° C., time 3 (months)): 0.55%
- % impurities ([3]; T = 5° C., time 6 (months)): 0.74%
- % impurities ([3]; T = 5° C., time 9 (months)): 0.91%
- % impurities [3, 5]: 0.42%
- % impurities [3, 6]: 1.80%
- % impurities [3, 7]: 2.90%
- % impurities [3, 8]: 5.00%
- % impurities [3, 9]: 0.42%
- % impurities [3, 10]: 4.00%
- % impurities [3, 11]: 13.20%
- % impurities [3, 12]: 25.80%
- % impurities [3, 13]: 0.42%
- % impurities [3, 14]: 18.50%
- % impurities [3, 15]: 94.30%

Structure (SMILES): CN1OC2CCCC(=O)C2C1Cc1ccccc1.O=C(O)CCC(=O)O (stereo not shown) [BTG 1640 succinate]
- Purity % ([1]; T = 5° C., time 0): 99.2%
- Purity % ([1]; T = 5° C., time 3 (months)): 98.0%
- Purity % ([1]; T = 5° C., time 6 (months)): 98.1%
- Purity % ([1]; T = 5° C., time 9 (months)): 96.8%
- Purity % [1, 5]: 99.2%
- Purity % [1, 6]: 92.7%
- Purity % [1, 7]: 87.0%
- Purity % [1, 8]: 90.5%
- Purity % [1, 9]: 99.2%
- Purity % [1, 10]: 85.4%
- Purity % [1, 11]: 71.5%
- Purity % [1, 12]: 66.8%
- Purity % [1, 13]: 99.2%
- Purity % [1, 14]: 16.5%
- Stability compared with BTG 1640 hydrochloride ([1]; conditions a)-d)): even worse
- Degradation (in words) ([1]; conditions a)-d), from the third month): shows degradation at all observation conditions
- % impurities ([3]; T = 5° C., time 0): 0.77%
- % impurities ([3]; T = 5° C., time 3 (months)): 2.00%
- % impurities ([3]; T = 5° C., time 6 (months)): 1.90%
- % impurities ([3]; T = 5° C., time 9 (months)): 3.20%
- % impurities [3, 5]: 0.77%
- % impurities [3, 6]: 7.30%
- % impurities [3, 7]: 13.00%
- % impurities [3, 8]: 9.50%
- % impurities [3, 9]: 0.77%
- % impurities [3, 10]: 14.60%
- % impurities [3, 11]: 28.50%
- % impurities [3, 12]: 33.30%
- % impurities [3, 13]: 0.77%
- % impurities [3, 14]: 83.50%
